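Briefly, cells in 96-well plates were exposed to five compound concentrations for 48 h, and endpoints were estimated by linear interpolation. GI50 is the concentration that inhibits growth by half. TGI is the concentration that stops growth completely.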
What was measured:
Experiment in all cases: NCI-60 cell line screen, 48 h
[1] = system: HOP-62 NSCLC
[2] = system: M14 melanoma
[3] = system: NCI-H226 lung
[4] = system: NCI-H460 lung
[5] = system: OVCAR-5 ovarian
[6] = system: SR leukemia
[7] = system: CCRF-CEM leukemia
[8] = system: MDA-MB-231 breast
[9] = system: NCI/ADR-RES ovarian
[10] = system: T-47D breast

SMILES | TGI [1] | TGI [2] | TGI [3] | TGI [4] | TGI [5] | TGI [6] | TGI [7] | GI50 [7] | GI50 [1] | GI50 [2] | GI50 [8] | TGI [8] | GI50 [3] | GI50 [4] | GI50 [9] | TGI [9] | GI50 [5] | GI50 [6] | GI50 [10] | TGI [10]
CN(C)C(=S)/N=c1\sn(C)/c(=N\C(=S)N(C)C)n1C | > 100 µM | > 100 µM | > 100 µM | > 100 µM | > 100 µM | > 100 µM | – | – | – | – | – | – | – | – | – | – | – | – | – | –
CCCCCCCCCCCCCCCC(=O)OCCOCCOCCOCc1ccccc1 | > 100 µM | – | > 100 µM | > 100 µM | > 100 µM | – | – | – | – | – | – | – | – | – | – | – | – | – | – | –
C#CC1/C(=C\C(=O)OC)CCCC1O (configuration not stated) | > 100 µM | > 100 µM | > 100 µM | > 100 µM | > 100 µM | > 100 µM | > 100 µM | – | – | – | – | – | – | – | – | – | – | – | – | –
COCC(OC)C(CC=C(C#N)C#N)OC (configuration not stated) | > 100 µM | > 100 µM | – | – | > 100 µM | > 100 µM | > 100 µM | – | – | – | – | – | – | – | – | – | – | – | – | –
CC(C)C1=Cc2ccc3c(c2C(=O)C1=O)CCCC3(C)C | 37 µM | 16.2 µM | 35.9 µM | 37 µM | 33.8 µM | 6.48 µM | > 100 µM | – | – | – | – | – | – | – | – | – | – | – | – | –
Nc1ncn([C@@H]2O[C@H](CO)[C@@H](O)[C@H]2O)c(=O)n1 | 2.67 µM | 10.8 µM | 9.63 µM | 1.78 µM | > 100 µM | > 100 µM | > 100 µM | 1.95 µM | 0.49 µM | 1.38 µM | 1.61 µM | > 100 µM | 1.39 µM | 0.232 µM | 1.2 µM | 10.6 µM | 2.57 µM | 3.5 µM | – | –
O=C1N=C2Sc3ccc4ccccc4c3N2C1=O | 39.8 µM | 73.8 µM | 57 µM | 70.2 µM | > 100 µM | > 100 µM | > 100 µM | – | – | – | – | – | – | – | – | – | – | – | – | –
N#CC(C(=O)/C(=N\NC(N)=O)C(C#N)c1ccc(Cl)cc1)c1ccc(Cl)cc1 (configuration not stated) | > 100 µM | > 100 µM | > 100 µM | > 100 µM | > 100 µM | – | > 100 µM | – | – | – | – | – | – | – | – | – | – | – | – | –
COC1C(OC(=S)Nc2ccccc2)c2ccccc2N1C(C)=O (configuration not stated) | > 100 µM | > 100 µM | – | > 100 µM | – | > 100 µM | > 100 µM | – | – | – | – | – | – | – | – | – | – | – | – | –
COc1ccc(CCN(C)C2CCC(C#N)(c3ccc(OC)c(OC)c3)CC2)cc1OC (configuration not stated) | > 100 µM | > 100 µM | > 100 µM | > 100 µM | > 100 µM | > 100 µM | > 100 µM | – | – | – | – | – | – | – | – | – | – | – | – | –
C=CCCCCC1CCC2CCC(CCCCC=C)N12 (configuration not stated) | 33 µM | 31.3 µM | 34.1 µM | 26.2 µM | – | 33.4 µM | 37.7 µM | – | – | – | – | – | – | – | – | – | – | – | – | –
COC(=O)/C(=N\NC(N)=S)C(C(=O)OC)C(=O)C(=O)Nc1ccc(C)cc1 (configuration not stated) | > 100 µM | > 100 µM | > 100 µM | > 100 µM | > 100 µM | > 100 µM | > 100 µM | – | – | – | – | – | – | – | – | – | – | – | – | –
CC(C)(C)c1cc(C(P(=O)(O)O)P(=O)(O)O)cc(C(C)(C)C)c1O | > 100 µM | > 100 µM | > 100 µM | > 100 µM | > 100 µM | – | > 100 µM | – | – | – | – | – | – | – | – | – | – | – | – | –
COc1ccc(OCC(=O)O)c2c1CCCC2=O | > 100 µM | > 100 µM | > 100 µM | > 100 µM | > 100 µM | > 100 µM | > 100 µM | – | – | – | – | – | – | – | – | – | – | – | – | –
O=C(OC1CCC(=C2SCCCS2)[C@H]1C1SCCCS1)c1ccccc1 (some centres not stated) | > 100 µM | > 100 µM | > 100 µM | > 100 µM | – | – | > 100 µM | – | – | – | – | – | – | – | – | – | – | – | – | –
Cc1ccc2nc(/C(=C/c3ccc(/C=C(\NC(=O)c4ccccc4)c4nc5ccc(C)cc5[nH]4)c(C)c3)NC(=O)c3ccccc3)[nH]c2c1 | > 100 µM | 52.7 µM | 77.5 µM | 35.8 µM | 33.8 µM | > 100 µM | 41.9 µM | – | – | – | – | – | – | – | – | – | – | – | – | –
O=[N+]([O-])c1ccc2occ3c2c1CCC3 | > 100 µM | > 100 µM | > 100 µM | > 100 µM | > 100 µM | > 100 µM | > 100 µM | – | – | – | – | – | – | – | – | – | – | – | – | –
COc1c(O)c2c(=O)cc3c4c5c(cc(=O)c6c(O)c(OC)c(CC(C)O)c(c(c1CC(C)O)c24)c65)OCO3 (configuration not stated) | 4.01 µM | 3.57 µM | 6.66 µM | 2.32 µM | 9.13 µM | 9.41 µM | 16.7 µM | – | – | – | – | – | – | – | – | – | – | – | – | –
O=C(/C(=C/c1ccc(Cl)cc1)c1ccccc1)c1ccccc1 | 57.5 µM | 31.4 µM | 31.7 µM | 34.8 µM | 42.3 µM | 45.3 µM | > 100 µM | – | – | – | – | – | – | – | – | – | – | – | – | –
NC(N)=N/N=C/c1c(Cl)cccc1Cl | > 100 µM | – | > 100 µM | 32.5 µM | 79.8 µM | 56.3 µM | > 100 µM | 28.5 µM | 30.9 µM | – | – | – | 24.1 µM | 15.6 µM | 28.9 µM | > 100 µM | 22.4 µM | 22.2 µM | 14.7 µM | 39.6 µM

Source: PubChem BioAssay (NCI)
